US9260382B2, “Methods of reducing virulence in bacteria” (priority 2010, dated 2016)
Entries after “also recorded” stand apart in the source; their conditions may differ.

Assays:
hrpS promoter = experiment: GFP reporter plasmid phrpS, flow cytometry of hrpS promoter activity; assay type: cell-based, Dickeya dadantii 3937; conditions: reporter plasmid phrpS
Procedure: (§1) FACS analysis of promoter activity of dspE, hrpA, hrpL, hrpN, and hrpS was carried out as described (Peng et al., 2006). Briefly, the wild-type Ech3937 and the mutant strains carrying the promoter reporter plasmid were grown on LB broth at 28° C. overnight and transferred to appropriate media. For FACS analysis, samples were collected by centrifugation, washed with 1× phosphate buffer saline (PBS) at 13,000 rpm for 1 min, and re-suspended in 1×PBS to ca 10^6 CFU/ml prior to being run in a FACS Calibur flow cytometer (BD Biosciences, CA). Three replicates were performed for each treatment.
To test for an inhibitory effect on T3SS hrpS expression, the reporter plasmid phrpS was used to measure the effects of these compounds on hrpA expression.

hrpA promoter (T3SS) [1] = experiment: GFP reporter plasmid phrpA, flow cytometry (FACS) of hrpA promoter activity; assay type: cell-based, Dickeya dadantii 3937; conditions: for mean fluorescence intensity of GFP, hrpA expression: D. dadantii 3937 (phrpA), MM + 100 μM compound; for inhibitory activity on T3SS gene (hrpA) expression, in words: D. dadantii 3937, reporter plasmid phrpA, 100 μM; for minimal effective concentration: Dickeya dadantii, read-out: minimal inhibitory concentration on hrpA expression (concentration showing inhibitory effect)
Procedure: as §1
To identify potential compounds that repress activation of T3SS, analogs and isomers of TCA and intermediates of salicylic acid and phenypropanoid biosynthesis pathways in plants were further screened for their effect on Ech3937 hrpA expression by flow cytometry (Table 9). A green fluorescent protein (GFP) reporter plasmid phrpA (pProbe-AT derivative with PCR fragment containing hrpA promoter region) was constructed, resulting in a transcriptional fusion of hrpA promoter with GFP gene. Bacterial cells containing phrpA plasmid were grown in MM supplemented with 0.1 mM of each compound. GFP intensity, which is a measurement of hrpA promoter activity, was measured by flow cytometry.
hrpA encodes the T3SS pilus required for protein translocation into plant cells. To test for an inhibitory effect on T3SS hrpA expression, the reporter plasmid phrpA was used to measure the effects of these compounds on hrpA expression. The reporter plasmid phrpA encodes a transcriptional fusion of the hrpA promoter controlling expression of green fluorescent protein (gfp). 50 μL of bacterial suspension of D. dadantii 3937 carrying the hrpA reporter (optical density at 600 nm OD600=1.0) was used as the initial inoculum and added to 5 mL of MM or MM supplemented with 100 μM of one of the compounds. The expression level of hrpA of these bacterial cells was measured by measuring GFP intensity of gated populations of the bacterial cells by flow cytometry and analyzed with Cell Quest software (BD Biosciences, San Jose, Calif.). The fluorescence intensities were an average GFP fluorescence intensity of total bacterial cells. Compounds were assayed two different times (12 and 24 h of bacterial growth) with T3SS minimal media (MM) as the control treatment for each set of experiment. Values presented in Table 14 are mean fluorescence intensity of GFP, representative of two experiments, presented as the average of three replicates with standard deviation (SD).

hrpA promoter (T3SS) [2] = experiment: hrpA promoter-probe phrpA in Erwinia amylovora 273, flow cytometry; assay type: cell-based; conditions: Ea273 (phrpA), HIM + 100 μM compound
Procedure: Wild-type Erwinia amylovora 273 was used in this study. The promoter-probe plasmid phrpA was constructed as follows. The hrpA promoter region of Erwinia amylovora 273 was amplified and cloned into pPROBE-NT to produce PhrpA. Plasmid PhrpA was electroporated into Erwinia amylovora 273. Expression of hrpA was analyzed using a FACS Calibur flow cytometer (BD Biosciences, CA). Wild-type Erwinia amylovora 273 containing phrpA was cultured in a hrp-inducing medium (HIM) containing dimethyl sulfoxide (DMSO; solvent of chemical compounds), or HIM supplemented with 100 μM of each compound, and promoter activity was assessed at 6 h and 9 h by measuring GFP intensity using flow cytometry (Table 19).

P. aeruginosa = P. aeruginosa bacterial growth with compound; assay type: cell-based, P. aeruginosa PA01; conditions: P. aeruginosa, 250 μM
Procedure: (§2) To identify T3SS inhibitors of PA01, a promoter-probe vector pPROBE-AT containing the promoterless green fluorescent protein (gfp) gene was used to construct an exoS promoter-gfp plasmid reporter, pATexoS. PA01 containing pATexoS was cultured in T3SS-inducing medium containing dimethyl sulfoxide (DMSO; solvent of chemical compounds), or supplemented with 250 μM of each compound, and promoter activity was assessed at 6 h by measuring GFP intensity using flow cytometry. 101 compounds (58 synthesized and 43 commercially available) were screened. Compounds 027, 032, 101, and 149 repressed exoS expression at the final concentration of 250 μM by at least one standard deviation below the sample average (Z score≦−1) (FIG. 37 A-E). Z score (or standard score) indicates how many standard deviations an observation or datum is above or below the mean [z=(x−μ)/σ, where x is a raw score to be standardized, μ is the mean of the population, and σ is the standard deviation of the population].
(§3) To determine the effective concentration of compounds, the dose-dependent effect of potential inhibitors on exoS expression and bacterial growth were tested. P. aeruginosa cells carrying pATexoS were pre-cultured in LB supplemented with 200 mM NaCl and transferred to fresh LB with 200 mM NaCl, 10 mM NTA, and various concentrations of compounds (20, 50, 100, and 250 μM) or DMSO for 6 h. […] At 50 μM dosage, both 027 and 101 inhibited exoS expression at similar levels, and this inhibitory effect increased as compound concentration increased (FIG. 38A and Table 17). […] These inhibitions/inductions of exoS expression are caused by the shifting bacterial population between low-state expression cells and high-state expression cells (FIG. 40).

exoS promoter (T3SS) = experiment: exoS promoter-gfp reporter pATexoS, flow cytometry; assay type: cell-based, P. aeruginosa PA01; conditions: for Actual readings of flow cytometry (exoS expression): 6 h, LB with 200 mM NaCl, 10 mM NTA; for Fraction of untreated control (exoS expression): structure-activity table, concentration not given; for effect on exoS promoter activity, in words: screening for T3SS inhibitors
Procedure: as §2, §3

[3] = Trial 1, MM supplemented with compound at 100 μM
[4] = Trial 2, MM supplemented with compound at 100 μM

SMILES	inhibitory effect on T3SS hrpS expression, in words (hrpS promoter)	mean fluorescence intensity of GFP, hrpA expression (hrpA promoter (T3SS) [1]; 12 h)	mean fluorescence intensity of GFP, hrpA expression (hrpA promoter (T3SS) [1]; 24 h)	inhibitory activity on T3SS gene (hrpA) expression, in words (hrpA promoter (T3SS) [1])	minimal effective concentration (hrpA promoter (T3SS) [1]) [µM]	Mean Fluorescence Intensity of GFP (hrpA, phrpA) (hrpA promoter (T3SS) [1]; [3])	Avg MFI ± SD, hrpA expression (hrpA promoter (T3SS) [2]; 6 h)	Avg MFI ± SD, hrpA expression (hrpA promoter (T3SS) [2]; 9 h)	effect on bacterial growth, in words (P. aeruginosa)	Actual readings of flow cytometry (exoS expression) (exoS promoter (T3SS); 20 uM)	Actual readings of flow cytometry (exoS expression) (exoS promoter (T3SS); 50 uM)	Actual readings of flow cytometry (exoS expression) (exoS promoter (T3SS); 100 uM)	Actual readings of flow cytometry (exoS expression) (exoS promoter (T3SS); 250 uM)	Fraction of untreated control (exoS expression) (exoS promoter (T3SS))	Mean Fluorescence Intensity of GFP (hrpA, phrpA) (hrpA promoter (T3SS) [1]; [4])	effect on exoS promoter activity, in words (exoS promoter (T3SS))
CCOC(=O)[C@@H]1C[C@H]1c1ccc(O)cc1 (relative stereo) [Compound 106, Ethyl trans-2-(4-hydroxyphenyl)-1-cyclopropanecarboxylate]	inhibited hrpS	10.5 ± 0.8	49.4 ± 4.1	showed inhibitory effect; also recorded: strong inhibitory potency	100	9.4 ± 0.1	1289.3 ± 46.5	1110.9 ± 67.5	–	–	–	–	–	–	–	–
OC/C=C/c1ccccc1 [Compound 032, Cinnamyl alcohol]	–	–	–	–	–	–	681.6 ± 217.9	784.0 ± 53.3	minor alterations in bacterial growth	–	–	–	–	–	–	–
COC(=O)/C=C/c1ccc(O)cc1 [Compound 101, Methyl para-coumate]	–	17.5 ± 0.7	19.9 ± 0.5	–	100	–	1443.4 ± 49.4	1227.8 ± 41.6	–	122.82 ± 2.89	106.83 ± 3.09	100.10 ± 1.33	81.88 ± 2.41	0.65 ± 0.03	–	–
O=C(O)/C=C/c1ccc(Br)cc1 [Compound 111, trans-4-Bromocinnamic acid]	inhibited hrpS	23.9 ± 5.2	54.7 ± 7.2	showed inhibitory effect; also recorded: moderate potency	–	16.5 ± 0.8	102.8 ± 23.5	61.8 ± 4.2	–	–	–	–	–	–	–	–
COc1ccc(/C=C/CN2C(=O)c3ccccc3C2=O)cc1 [Compound 118, N-(4-Methoxycinnamyl)phthalimide]	–	59.0 ± 0.4	83.8 ± 1.7	–	–	–	361.3 ± 28.6	520.4 ± 16.2	–	–	–	–	–	–	–	–
COc1ccc(/C=C/CN)cc1 [Compound 119, trans-4-Methoxycinnamylamine]	–	47.8 ± 3.2	68.2 ± 10.4	did not show any inhibitory activity	–	–	208.6 ± 18.6	232.9 ± 44.4	–	–	–	–	–	–	–	–
CCOS(=O)(=O)/C=C/c1ccc(OC)cc1 [Compound 120, Ethyl trans-2-(4-methoxyphenyl)-ethenylsulfonate]	–	49.9 ± 2.6	68.6 ± 6.0	did not exhibit any activity	–	–	371.5 ± 29.7	492.0 ± 37.6	–	–	–	–	–	–	–	–
CCOS(=O)(=O)/C=C/c1ccc(O)cc1 [Compound 122, Ethyl trans-2-(4-hydroxyphenyl)-ethenylsulfonate]	–	38.6 ± 1.8	60.9 ± 0.8	did not exhibit any activity	–	–	2042.8 ± 20.7	2900.6 ± 120.1	–	–	–	–	–	–	–	–
O=C(O)/C=C/c1ccc(CO)cc1 [Compound 124, trans-4-Hydroxymethylcinnamic acid]	–	44.9 ± 3.5	78.1 ± 3.4	did not show any inhibitory activity	–	–	419.8 ± 12.2	444.3 ± 11.4	–	–	–	–	–	–	–	–
COc1ccc(/C=C/CO)cc1 [Compound 126, trans-4-Methoxycinnamyl alcohol]	inhibited hrpS	7.8 ± 0.2	13.4 ± 0.3	showed inhibitory effect; also recorded: potent inhibitor	100	–	386.9 ± 9.4	401.4 ± 10.8	–	–	–	–	–	–	9.5 ± 0.7	–
O=C(/C=C/c1c[nH]c2ccccc12)NO [Compound 127, trans-3-Indoleacrylohydroxamic acid]	inhibited hrpS	21.0 ± 3.0	35.1 ± 3.0	showed inhibitory effect; also recorded: moderate potency	100	–	91.4 ± 4.9	102.7 ± 0.5	–	–	–	–	–	–	26.2 ± 2.6	–
O=C(/C=C/c1ccccc1)NO [Compound 132, trans-Cinnamohydroxamic acid]	–	–	–	–	–	–	145.7 ± 1.2	147.8 ± 4.2	–	–	–	–	–	1.53 ± 0.19	–	little or no effect on exoS promoter activity
CNC(=O)/C=C/c1ccc(O)cc1 [Compound 137, N-Methyl-4-hydroxycinnamamide]	–	–	–	–	–	–	1064.1 ± 99.3	1121.1 ± 52.1	–	–	–	–	–	0.92 ± 0.05	–	little or no effect on exoS promoter activity
O=C(/C=C/c1cccc(Cl)c1)NO [Compound 149, trans-3-Chlorocinnamohydroxamic acid]	–	–	–	–	–	–	31.2 ± 34.1	21.7 ± 28.5	minor alterations in bacterial growth	–	–	–	–	–	–	–
